This passage reports Ki results from BindingDB's records for patent US9212173 (Genentech, 2015).

The structures appear in SMILES notation.

The assay addresses Leucine-rich repeat serine/threonine-protein kinase 2 (Homo sapiens, UniProt Q5S007). The assay is described as follows: Lanthascreen Binding Assay. Here is the method: This assay was used to determine a compound's potency in inhibiting activity of LRRK2 by determining, Kiapp, IC50, or percent inhibition values. In 384 well proxiplates F black, shallow well plates LRRK2, Eu-anti-GST-antibody, Alexa Fluor Kinase tracer 236 and test compound were incubated together.Binding of the Alexa Fluor tracer to a kinase is detected by addition of a Eu-labeled anti-GST antibody. Binding of the tracer and antibody to a kinase results in a high degree of FRET, whereas displacement of the tracer with a kinase inhibitor results in a loss of FRET. Assay conditions and materials used were as follows: Final Assay Conditions: GST-LRRK2 G2019S 10 nM Eu-anti-GST-antibody 2 nM Kinase tracer 236 8.5 nM Kinase reaction time: 1 hour Temperature: ambient Total volume: 15 ul DMSO 1% Materials: 384 well proxiplates F black shallow cat# 6008260 well Perkin Elmer Kinase: LRRK2 G2019S, Invitrogen cat # PV4882(LOT 567054A).

For orientation: Ki means the equilibrium dissociation constant of an inhibitor or competing ligand from its target. Low readings indicate higher affinity, high ones lower affinity.

Chain of Leucine-rich repeat serine/threonine-protein kinase 2 (Q5S007 whole entry): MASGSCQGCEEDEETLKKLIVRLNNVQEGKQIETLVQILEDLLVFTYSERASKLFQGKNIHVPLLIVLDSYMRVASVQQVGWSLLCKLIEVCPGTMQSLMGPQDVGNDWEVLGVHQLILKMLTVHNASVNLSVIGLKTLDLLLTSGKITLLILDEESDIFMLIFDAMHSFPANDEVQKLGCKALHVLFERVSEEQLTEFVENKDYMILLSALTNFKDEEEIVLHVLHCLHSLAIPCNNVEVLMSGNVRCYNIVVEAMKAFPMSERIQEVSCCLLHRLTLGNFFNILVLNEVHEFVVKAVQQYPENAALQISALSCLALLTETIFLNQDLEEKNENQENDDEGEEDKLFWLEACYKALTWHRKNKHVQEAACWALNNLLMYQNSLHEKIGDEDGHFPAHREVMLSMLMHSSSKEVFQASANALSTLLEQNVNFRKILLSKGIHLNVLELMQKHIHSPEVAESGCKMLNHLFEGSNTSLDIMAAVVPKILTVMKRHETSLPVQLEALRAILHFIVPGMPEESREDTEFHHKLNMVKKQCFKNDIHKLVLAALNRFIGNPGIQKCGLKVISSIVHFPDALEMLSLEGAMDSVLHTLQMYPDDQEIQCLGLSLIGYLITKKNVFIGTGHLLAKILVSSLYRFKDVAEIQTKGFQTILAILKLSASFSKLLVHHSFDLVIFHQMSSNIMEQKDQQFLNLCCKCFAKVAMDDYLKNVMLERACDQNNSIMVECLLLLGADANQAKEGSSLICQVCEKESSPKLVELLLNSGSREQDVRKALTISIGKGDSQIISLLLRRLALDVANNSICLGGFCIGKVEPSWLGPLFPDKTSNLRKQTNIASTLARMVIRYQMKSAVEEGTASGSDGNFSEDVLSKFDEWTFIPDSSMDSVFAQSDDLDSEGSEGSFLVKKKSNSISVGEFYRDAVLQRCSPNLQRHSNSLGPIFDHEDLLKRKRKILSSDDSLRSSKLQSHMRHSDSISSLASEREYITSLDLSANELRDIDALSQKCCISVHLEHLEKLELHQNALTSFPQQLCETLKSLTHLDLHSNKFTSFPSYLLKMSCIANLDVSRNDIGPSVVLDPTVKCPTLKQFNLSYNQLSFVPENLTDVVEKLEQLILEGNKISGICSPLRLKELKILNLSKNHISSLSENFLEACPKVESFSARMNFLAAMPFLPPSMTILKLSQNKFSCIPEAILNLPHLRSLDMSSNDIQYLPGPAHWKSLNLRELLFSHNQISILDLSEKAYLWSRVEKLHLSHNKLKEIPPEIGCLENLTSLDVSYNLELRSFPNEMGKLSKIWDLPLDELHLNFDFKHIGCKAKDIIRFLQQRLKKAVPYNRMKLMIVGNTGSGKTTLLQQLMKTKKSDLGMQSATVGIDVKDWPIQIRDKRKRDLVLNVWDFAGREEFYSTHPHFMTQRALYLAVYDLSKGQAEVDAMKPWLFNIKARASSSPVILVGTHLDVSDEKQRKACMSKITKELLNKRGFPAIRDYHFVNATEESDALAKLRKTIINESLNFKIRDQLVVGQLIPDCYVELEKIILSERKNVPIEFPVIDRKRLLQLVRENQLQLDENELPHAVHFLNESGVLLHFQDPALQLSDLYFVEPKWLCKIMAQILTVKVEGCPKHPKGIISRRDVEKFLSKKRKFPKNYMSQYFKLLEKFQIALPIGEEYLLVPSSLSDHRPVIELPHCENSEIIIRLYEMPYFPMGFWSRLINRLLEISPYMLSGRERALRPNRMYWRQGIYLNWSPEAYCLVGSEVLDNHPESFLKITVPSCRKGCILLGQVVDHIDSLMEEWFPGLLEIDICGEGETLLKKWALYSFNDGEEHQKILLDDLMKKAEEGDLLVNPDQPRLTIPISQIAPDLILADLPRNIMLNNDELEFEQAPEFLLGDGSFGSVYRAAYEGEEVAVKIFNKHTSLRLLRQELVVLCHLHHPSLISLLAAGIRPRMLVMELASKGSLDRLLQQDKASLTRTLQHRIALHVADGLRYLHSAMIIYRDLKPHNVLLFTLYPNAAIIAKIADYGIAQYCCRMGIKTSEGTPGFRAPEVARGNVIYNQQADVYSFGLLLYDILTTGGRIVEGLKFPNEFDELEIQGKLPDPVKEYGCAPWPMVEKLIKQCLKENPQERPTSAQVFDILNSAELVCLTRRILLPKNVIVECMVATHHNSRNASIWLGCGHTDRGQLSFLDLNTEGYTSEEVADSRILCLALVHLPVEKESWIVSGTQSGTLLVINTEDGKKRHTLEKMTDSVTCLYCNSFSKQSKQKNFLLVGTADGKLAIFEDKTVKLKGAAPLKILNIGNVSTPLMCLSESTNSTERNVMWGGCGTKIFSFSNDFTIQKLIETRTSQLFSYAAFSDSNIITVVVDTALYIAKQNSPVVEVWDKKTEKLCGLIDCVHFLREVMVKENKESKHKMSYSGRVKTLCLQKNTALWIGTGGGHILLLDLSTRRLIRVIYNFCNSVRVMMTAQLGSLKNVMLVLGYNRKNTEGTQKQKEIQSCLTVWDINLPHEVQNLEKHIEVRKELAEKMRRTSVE

`CCn1cnnc1C(C)(C)n1cc(Nc2ncc(C(F)(F)F)c(NC)n2)c(Cl)n1` [US9212173, 11]: the Ki stood at 155 nM. For `CCNc1nc(Nc2cn(C(C)(C)c3ncn(CC)n3)nc2Cl)ncc1C(F)(F)F` [US9212173, 14], the Ki stood at 1.1 nM.
